Assays:
[1] = Laboratory stability in halogen demand-free water (DFW), iodometric titration; format: physicochemical; conditions: for remaining at 23.52 h / remaining at 95.76 h / remaining at 168 h / remaining at 336 h / remaining at 504 h / remaining at 672 h / remaining at 840 h / remaining at 1008 h: demand-free water
Experimental: The stability of 1,3-dichloro-2,2,5,5-tetramethylimidazolidin-4-one (Compound 1) in halogen demand-free water was determined at 22° C. and pH values of 4.5, 7.0, and 9.5, and the results were compared to those for free chlorine as supplied by calcium hypochlorite. The demand-free water (DFW) was prepared by chlorination of distilled, deionized water buffered to the appropriate pH followed by dechlorination (of the excess free chlorine) by exposure to direct sunlight until no free chlorine remained. This treatment insured that all halogen demand in the water was neutralized. Then Compound 1 and calcium hypochlorite were separately dissolved in identical DFW (buffered to an appropriate pH) solutions to the same final total chlorine concentrations (10 milligrams per liter potential positive chlorine). The solutions in separate flasks, which were stoppered with porous, sterile cotton plugs to allow free exchange with laboratory air, were then held at a constant temperature of 22° C. by means of a controlled water bath for a period of several weeks. Aliquots were withdrawn periodically (at least weekly), and the total positive chlorine remaining was determined in triplicate by standard iodometric titration. […]
The stabilities of 1,3-dibromo-2,2,5,5-tetramethylimidazolidin-4-one (Compound 4) and 1-bromo-3-chloro-2,2,5,5-tetramethylimidazolidin-4-one (Compound 5) in halogen demand-free water (DFW) were determined at 22° C. and pH values of 7.0 and 9.5 using the same procedures as discussed under example 9. Given the instability of Compound 1 at pH 4.5 (example 9), it was deemed unnecessary to test compounds 4 and 5 at that pH. The two compounds were dissolved in DFW buffered to the appropriate pH in separate flasks and held at a temperature of 22° C. by means of a constant temperature bath. The starting concentrations of total potential positive halogen in the two solutions were 22.6 milligrams per liter for Compound 4 and 16.25 milligrams per liter for Compound 5; these concentrations represent the molar equivalents in total potential positive halogen to that used for Compound 1 in example 9. The solutions were analyzed in the manner described in example 9.

[2] = tested on: Staphylococcus aureus (ATCC25923); assay: Bactericidal efficacy, percent inactivation of S. aureus; format: cell-based; conditions: for killing at 5 ppm: DFW; for killing at 10 ppm: SDW
Experimental: (§1) The halogenated imidazolidin-4-one derivatives prepared as in examples 3, 5, and 6 (Compounds 1, 5, and 3, respectively) were tested as bactericides against the microorganisms Staphylococcus aureus (ATCC25923) and Pseudomonas aeruginosa (ATCC 27853) in demand-free water (DFW) as a function of pH and temperature and in a synthetic-demand water (SDW) at pH 9.5 and 4° C. The demand-free and synthetic-demand waters were prepared as described in examples 7 and 12, respectively.
(§2) For the bactericidal efficacy tests 50 milliliters of buffered DFW or SDW were placed in a 125 milliliter flask which was then inoculated with the organism to be tested such that the final density of the organism was about 1×10^6 cfu/ml (colony forming units per milliliter). The inoculated solution was allowed to equilibrate at the test temperature by immersion in a thermostated water bath for 15 minutes with constant stirring. Then an appropriate amount of an aqueous solution containing the test halogenated imidazolidin-4-one compound maintained at the same test temperature was added to the inoculated solution to bring the total concentration of potential positive halogen (Cl^+ or Cl^+ /Br^+) in the mixture to a predetermined level (10 parts per million and 5 parts per million Cl^+ from compounds 1 and 3; the molar equivalent in Cl^+ /Br^+ from Compound 5). 1 milliliter aliquots were removed from the test mixture at various predetermined times, and the active halogen was quenched by 1 milliliter portions of sterile 0.02 Normal sodium thiosulfate. Serial dilutions were made into sterile saline, and three 25 microliter aliquots of each of the resulting dilutions were applied to the dried surface of a Petri dish containing tryptic soy and nutrient agars for plating S. aureus and P. aeruginosa, respectively. After 48 hours at 37° C. the three replicates for each dilution were counted and averaged. This average was used to compute the cfu/ml for that particular aliquot. Inactivation of the organism was considered to be at least 99.9999 percent when no colonies were detected in the thiosulfate quenched aliquots.

[3] = Stability in synthetic halogen demand water (SDW); format: physicochemical; conditions: 4° C.
Experimental: A synthetic halogen demand water (SDW) was prepared by mixing the following substances with demand-free water (DFW): 375 milligrams per liter of each of the inorganic salts sodium chloride, potassium chloride, calcium chloride, and magnesium chloride; 50 milligrams per liter of Bentonite clay; 30 milligrams per liter of humic acid; 0.01 percent final concentration of heat-treated horse serum; and 5×10^5 cells per milliliter of heat-killed Saccharomyces cerevisiae yeast cells. The SDW solution was buffered with 0.01 Molar borate/sodium hydroxide to a pH of 9.5 and held at 4° C. during the experiments. The conditions of high ionic strength, turbidity, and organic material, and alkaline pH at low temperature, are viewed as a worst-case scenario for disinfection applications and thus should provide the optimum test of stability for the new compounds.
In separate flasks were dissolved compounds 1, 2, 3, and 5 to a starting concentration of 10 milligrams per liter total potential positive chlorine or its molar equivalent (16.25 milligrams per liter) in total potential positive halogen for Compound 5. Aliquots were withdrawn frequently over a period of more than 90 hours, and the percent positive halogen remaining was determined by standard iodometric titration.

bacteria = assay: Bactericidal efficacy, summary over all bacteria and conditions; format: cell-based, Staphylococcus aureus and Pseudomonas aeruginosa; conditions: Table V conditions
Experimental: as §1, §2

[4] = ATCC25923, 5 min, pH 9.5, pH 9.5, 4° C., 5 minutes
[5] = ATCC25923, 10 min, pH 9.5, pH 9.5, 4° C., 10 minutes

## CC1(C)C(=O)N(Cl)C(C)(C)N1Cl [Compound 1, 1,3-dichloro-2,2,5,5-tetramethylimidazolidin-4-one]
[1]
  stability (in words), against Compounds 4 and 5: considerably more stable in DFW at pH values of 7.0 and 9.5 and 22 °C than are Compounds 4 and 5
[1]; pH 4.5
  remaining at 23.52 h: 100%
  remaining at 95.76 h: 88.9%
  remaining at 168 h: 77.6%
  remaining at 336 h: 55.5%
  remaining at 504 h: 40.4%
  remaining at 672 h: 30.7%
  remaining at 840 h: 26%
  remaining at 1008 h: 23.5%
  stability (in words): rather unstable in acidic DFW (pH 4.5)
[1]; pH 7
  remaining at 168 h: 97.1%
  remaining at 336 h: 95%
  remaining at 504 h: 93.5%
  remaining at 672 h: 90.6%
  remaining at 840 h: 86%
  remaining at 1008 h: 83.4%
  stability (in words): considerably more stable in DFW at pH 7.0 at 22 °C than is free chlorine
[1]; pH 9.5
  remaining at 23.52 h: 96.5%
  remaining at 95.76 h: 98.9%
  remaining at 168 h: 95.1%
  remaining at 336 h: 89.4%
  remaining at 504 h: 82.6%
  remaining at 672 h: 72.3%
  remaining at 840 h: 63.7%
  remaining at 1008 h: 55.1%
  stability (in words), against free chlorine: more stable than free chlorine in alkaline DFW (pH 9.5)
[2]; ATCC25923, 5 min, pH 4.5, pH 4.5, 22° C., 5 minutes
  killing at 5 ppm: 100%
[2]; ATCC25923, 5 min, pH 7, pH 7.0, 22° C., 5 minutes
  killing at 5 ppm: 89.1%
[2]; [4]
  killing at 5 ppm: 71.3%
  killing at 10 ppm: 43.8%
[2]; ATCC25923, 5 min, pH 9.5, pH 9.5, 22° C., 5 minutes
  killing at 5 ppm: > 100%
[2]; ATCC25923, 10 min, pH 4.5, pH 4.5, 22° C., 10 minutes
  killing at 5 ppm: > 100%
[2]; ATCC25923, 10 min, pH 7, pH 7.0, 22° C., 10 minutes
  killing at 5 ppm: 99.1%
[2]; [5]
  killing at 5 ppm: 80.9%
  killing at 10 ppm: 68.1%
[2]; ATCC25923, 10 min, pH 9.5, pH 9.5, 22° C., 10 minutes
  killing at 5 ppm: > 100%
[3]; heavy halogen demand (SDW), pH 9.5
  stability (in words): much more stable under these conditions than is free chlorine
[3]; synthetic halogen demand water, SDW, pH 9.5, 0.083 hrs, read-out: Percent Halogen Remaining
  remaining at 0.083 h: 98.8%
[3]; synthetic halogen demand water, SDW, pH 9.5, 0.25 hrs, read-out: Percent Halogen Remaining
  remaining at 0.25 h: 98.8%
[3]; synthetic halogen demand water, SDW, pH 9.5, 0.5 hrs, read-out: Percent Halogen Remaining
  remaining at 0.5 h: 93.1%
[3]; synthetic halogen demand water, SDW, pH 9.5, 1.0 hrs, read-out: Percent Halogen Remaining
  remaining at 1 h: 92.4%
[3]; synthetic halogen demand water, SDW, pH 9.5, 2.0 hrs, read-out: Percent Halogen Remaining
  remaining at 2 h: 92.4%
[3]; synthetic halogen demand water, SDW, pH 9.5, 4.0 hrs, read-out: Percent Halogen Remaining
  remaining at 4 h: 88.8%
[3]; synthetic halogen demand water, SDW, pH 9.5, 25.0 hrs, read-out: Percent Halogen Remaining
  remaining at 25 h: 71.4%
[3]; synthetic halogen demand water, SDW, pH 9.5, 93.0 hrs, read-out: Percent Halogen Remaining
  remaining at 93 h: 60.2%
bacteria
  bactericidal efficiency (in words): reasonably efficient as a bactericide
